Assay results reported in patent EP0745595A1, “3-(3-Aryloxyphenyl)-1-(substituted methyl)-s-triazine-2,4,6-oxo or thiotrione herbicidal agents” (American Cyanamid Company, priority 1995, dated 1996).

Legend:
Format in all cases: in vivo
[1] = test system: CYPERUS SEROTINUS, ROTTB.; assay: Preemergence weed control under flooded paddy conditions, CYPSE (Flatsedge); conditions: preemergence, 3-4 weeks after treatment
How it was run: (§1)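 Visual 0-9 rating against untreated control, covering stand, vigor, malformation, size and chlorosis, scored three to four weeks post-treatment in a greenhouse. Application was into 1.5-3 cm flood water over silt loam sown at 0.5 cm. The 50/50 v/v aqueous/acetone doses were about 0.5, 0.25, 0.125 and 0.063 kg/ha.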

[2] = test system: ORYZA SATIVA, L. TEBONNET; assay: Rice tolerance to post-transplant applications under flooded paddy conditions, ORYSAT (Rice, Tebonnet); conditions: post-transplant rice, 3-4 weeks after treatment
How it was run: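 Rated on a visual 0–9 scale against untreated plants 3–4 weeks after application, rice (cv. Tebonnet) tolerance was tested by applying compounds (approx. 0.5–0.063 kg/ha, acetone/water 50/50) to flooded soil three days post-transplant, water kept 1.5–3 cm deep.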

GALIUM APARINE = assay: Preemergence herbicidal evaluation, GALAP (Galium); conditions: rated four to five weeks after treatment
From the text: (§2) Results of herbicide evaluation are expressed on a rating scale (0-9). The scale is based upon a visual observation of plant stand, vigor, malformation, size, chlorosis and overall plant appearance as compared with a control.
(§3) The preemergence herbicidal activity of the test compounds of the present invention is exemplified by the following tests in which the seeds of a variety of monocotyledonous and dicotyledonous plants are separately mixed with potting soil and planted on top of approximately one inch of soil in separate pint cups. […] The treated cups are then placed on greenhouse benches, watered and cared for in accordance with conventional greenhouse procedures. From four to five weeks after treatment, the tests are terminated and each cup is examined and rated according to the rating system provided in Example 40.
(§4) The compounds evaluated are reported by compound number given in Example 40.

[3] = test system: AMBROSIA ARTEMISIIFOLIA, L.; assay: Preemergence herbicidal evaluation, AMBEL (Ragweed, Common); conditions: rated four to five weeks after treatment
From the text: as §2, §3, §4

CASSIA OBTUSIFOLIA, L. = assay: Preemergence herbicidal evaluation, CASOB (Sicklepod); conditions: rated four to five weeks after treatment
From the text: as §2, §3, §4

IPOMOEA SPP. = assay: Preemergence herbicidal evaluation, IPOSS (Morningglory spp.); conditions: rated four to five weeks after treatment
From the text: as §2, §3, §4

[4] = test system: TRITICUM AESTIVUM, CV. APOLLO; assay: Preemergence herbicidal evaluation, TRZAWO (Wheat, Winter, CV. APOLLO); conditions: rated four to five weeks after treatment
From the text: as §2, §3, §4

SAGITTARIA PYGMAEA, L. = assay: Preemergence weed control under flooded paddy conditions, SAGPY (Arrowhead (Pygmaea)); conditions: preemergence, 3-4 weeks after treatment
How it was run: as §1

[5] = test system: ECHINOCHLOA ORYZOIDES (ARD.)FRITSCH; assay: Preemergence weed control under flooded paddy conditions, ECHORC (Watergrass (Calif.)); conditions: preemergence, 3-4 weeks after treatment
How it was run: as §1

[6] = test system: SETARIA VIRIDIS, (L) BEAU; assay: Postemergence herbicidal evaluation, SETVI (Foxtail, Green); parameters: key to SETVI rating / Herbicidal effect rating, SETVI / SETVI: 0-9 visual rating scale vs untreated control
How it was run: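 Postemergence foliar spray at approximately 0.125–0.500 kg/ha onto two-week seedlings; greenhouse hold, then 0–9 visual injury rating after 4–5 weeks.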

[7] = test system: ECHINOCHLOA CRUS-GALLI, (L) BEAU; assay: Preemergence herbicidal evaluation, ECHCG (Barnyardgrass); conditions: rated four to five weeks after treatment
From the text: as §2, §3, §4

[8] = test system: GLYCINE MAX(L) MERR. CV. WILLIAMS; assay: Preemergence herbicidal evaluation, GLXMAW (Soybean, Williams); conditions: rated four to five weeks after treatment
From the text: as §2, §3, §4

ZEA MAYS L. = assay: Preemergence herbicidal evaluation, ZEAMX (Corn, Field); conditions: rated four to five weeks after treatment
From the text: as §2, §3, §4

[…], PRESL. = Preemergence weed control under flooded paddy conditions, MOOVA (Monochoria); conditions: preemergence, 3-4 weeks after treatment
How it was run: as §1

CHENOPODIUM ALBUM, L. = assay: Preemergence herbicidal evaluation, CHEAL (Lambsquarters, Common); conditions: rated four to five weeks after treatment
How it was run: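 Rated 0-9 by visual comparison with control (stand, vigor, malformation, size, chlorosis, overall appearance) four to five weeks after preemergence soil spray. Dose equivalent to about 0.125 to 0.50 kg per hectare, applied in aqueous acetone to freshly seeded cups kept in greenhouse.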

`Cn1c(=O)n(CC(=O)OC(C)(C)C)c(=O)n(-c2cc(Oc3ccc(C(F)(F)F)cc3Cl)ccc2Cl)c1=O` [Compound 40, Tert-butyl 3-{[2-chloro-5-(2-chloro-α,α,α-trifluoro-p-tolyl)oxy]phenyl}tetrahydro-5-methyl-2,4,6-trioxo-s-triazine-1(2H)-acetate] was tested, and the “Herbicidal effect rating, CYPSE” value ([1]; 0.063 kg/ha) was 0.0, the “Herbicidal effect rating, CYPSE” value ([1]; 0.125 kg/ha) was 0.0 and the “Herbicidal effect rating, CYPSE” value ([1]; 0.250 kg/ha) was 0.0. The “Herbicidal effect rating, CYPSE” value ([1]; 0.500 kg/ha) was 0.0, the “Herbicidal effect rating, ORYSAT” value ([2]; 0.063 kg/ha) was 0.5 and the “Herbicidal effect rating, ORYSAT” value ([2]; 0.125 kg/ha) was 0.5. For the same compound, the “Herbicidal effect rating, ORYSAT” value ([2]; 0.250 kg/ha) was 1.5, the “Herbicidal effect rating, ORYSAT” value ([2]; 0.500 kg/ha) was 1.5 and the GALAP herbicidal rating (GALIUM APARINE; Rate 0.125 kg/ha) was 4.5. The GALAP herbicidal rating (GALIUM APARINE; Rate 0.250 kg/ha) was 4.5, the AMBEL herbicidal rating ([3]; Rate 0.125 kg/ha) was 0.0 and the AMBEL herbicidal rating ([3]; Rate 0.250 kg/ha) was 0.0. The CASOB herbicidal rating (CASSIA OBTUSIFOLIA, L.; Rate 0.125 kg/ha) was 1.0, the CASOB herbicidal rating (CASSIA OBTUSIFOLIA, L.; Rate 0.250 kg/ha) was 1.0 and the IPOSS herbicidal rating (IPOMOEA SPP.; Rate 0.125 kg/ha) was 0.5. It also gave an IPOSS herbicidal rating (IPOMOEA SPP.; Rate 0.250 kg/ha) of 0.5, a TRZAWO herbicidal rating ([4]; Rate 0.125 kg/ha) of 0.0 and a TRZAWO herbicidal rating ([4]; Rate 0.250 kg/ha) of 0.0. The “Herbicidal effect rating, SAGPY” value (SAGITTARIA PYGMAEA, L.; 0.063 kg/ha) was 0.0, the “Herbicidal effect rating, SAGPY” value (SAGITTARIA PYGMAEA, L.; 0.125 kg/ha) was 0.0 and the “Herbicidal effect rating, SAGPY” value (SAGITTARIA PYGMAEA, L.; 0.250 kg/ha) was 0.0. For the same compound, the “Herbicidal effect rating, SAGPY” value (SAGITTARIA PYGMAEA, L.; 0.500 kg/ha) was 0.0.

`Cn1c(=O)n(CC(N)=O)c(=O)n(-c2cc(Oc3ncc(C(F)(F)F)cc3Cl)ccc2Br)c1=O` [Compound 42] was tested, and the “Herbicidal effect rating, ECHORC” value ([5]; 0.250 kg/ha) was 0.0, the “Herbicidal effect rating, ECHORC” value ([5]; 0.500 kg/ha) was 0.0 and the SETVI rating ([6]; Rate 0.125 kg/ha) was 1.0. The SETVI rating ([6]; Rate 0.250 kg/ha) was 1.0, the SETVI rating ([6]; Rate 0.500 kg/ha) was 1.0 and the “Herbicidal effect rating, CYPSE” value ([1]; 0.250 kg/ha) was 0.0. The “Herbicidal effect rating, CYPSE” value ([1]; 0.500 kg/ha) was 0.0, the ECHCG herbicidal rating ([7]; Rate 0.125 kg/ha) was 0.0 and the ECHCG herbicidal rating ([7]; Rate 0.250 kg/ha) was 0.0. The ECHCG herbicidal rating ([7]; Rate 0.500 kg/ha) was 0.0, the “Herbicidal effect rating, ORYSAT” value ([2]; 0.250 kg/ha) was 1.0 and the “Herbicidal effect rating, ORYSAT” value ([2]; 0.500 kg/ha) was 2.0. For the same compound, the GLXMAW herbicidal rating ([8]; Rate 0.125 kg/ha) was 0.0, the GLXMAW herbicidal rating ([8]; Rate 0.250 kg/ha) was 0.0 and the GLXMAW herbicidal rating ([8]; Rate 0.500 kg/ha) was 0.0. For the same compound, the CASOB herbicidal rating (CASSIA OBTUSIFOLIA, L.; Rate 0.125 kg/ha) was 0.0, the CASOB herbicidal rating (CASSIA OBTUSIFOLIA, L.; Rate 0.250 kg/ha) was 0.0 and the CASOB herbicidal rating (CASSIA OBTUSIFOLIA, L.; Rate 0.500 kg/ha) was 0.0. It also gave a ZEAMX herbicidal rating (ZEA MAYS L.; Rate 0.125 kg/ha) of 0.0, a ZEAMX herbicidal rating (ZEA MAYS L.; Rate 0.250 kg/ha) of 0.0 and a ZEAMX herbicidal rating (ZEA MAYS L.; Rate 0.500 kg/ha) of 0.0. The “Herbicidal effect rating, MOOVA” value ([…], PRESL.; 0.250 kg/ha) was 0.0, the “Herbicidal effect rating, MOOVA” value ([…], PRESL.; 0.500 kg/ha) was 0.0 and the CHEAL herbicidal rating (CHENOPODIUM ALBUM, L.; Rate 0.125 kg/ha) was 9.0. The CHEAL herbicidal rating (CHENOPODIUM ALBUM, L.; Rate 0.250 kg/ha) was 9.0, the CHEAL herbicidal rating (CHENOPODIUM ALBUM, L.; Rate 0.500 kg/ha) was 9.0 and the IPOSS herbicidal rating (IPOMOEA SPP.; Rate 0.125 kg/ha) was 0.0. The IPOSS herbicidal rating (IPOMOEA SPP.; Rate 0.250 kg/ha) was 0.0, the IPOSS herbicidal rating (IPOMOEA SPP.; Rate 0.500 kg/ha) was 0.0 and the “Herbicidal effect rating, SAGPY” value (SAGITTARIA PYGMAEA, L.; 0.250 kg/ha) was 0.0. The “Herbicidal effect rating, SAGPY” value (SAGITTARIA PYGMAEA, L.; 0.500 kg/ha) was 0.0.
